The values below come from patent US20080269259A1, “Regulation of Autophagy and Cell Survival” (THE TRUSTEES OF THE UNIVERSITY OF PENNSYLVANIA, priority 2005, published 2008).

Data set [1] deals with Myc/p53ER^TAM/GFP-LC3 cells. Description: GFP-LC3 fluorescence imaging. It is filed as cell-based, mice. Conditions: hTAM 250 mM, CQ 5 pM as printed; 48 hours.
Experimental: For GFP-LC3 fluorescence imaging, Myc/p53ER^TAM/IGFP-LC3 cells (see below) were exposed to the indicated treatments and fixed with 4% paraformaldehyde for 30 minutes at room temperature, washed three times and centrifuged onto slides. DAPI counterstain was used to identify cells with intact nuclei. All fluorescence imaging was performed and digitally captured at 100× magnification on a Nikon Eclipse E800 fluorescent microscope.
Data set [2] relates to Bax^−/−Bak^−/− cells. As to the kind of experiment: Viability of IL-3 dependent Bax−/−Bak−/− cells (propidium iodide exclusion). The data set is classed as cell-based, mice. The conditions noted are these: for effect on survival of cells grown in the presence of IL-3 / death of the cells in the cultures: 5 mM 3-MA or 10 μM CQ; for effect on survival of cells grown in the presence of IL-3: IL-3 present; for death of the cells in the cultures: by 48 hours, cells deprived of growth factor for 6 weeks. As for the experimental part:
Immortalized IL-3 dependent cells were obtained from the bone marrow of two independent Bax^−/−Bak^−/− mice using previously established protocols. Subsequent experiments using these cells were performed in complete media consisting of: RPMI 1640 medium (Invitrogen) supplemented with 10% heat inactivated fetal bovine serum (Gemini), 10 units/mL penicillin/streptomycin and 2 mM L-glutamine (Invitrogen), 50 μm β-mercaptoethanol (Sigma) and 10 mM HEPES (Invitrogen). For cells grown in the presence of IL-3, the complete medium was supplemented with 3.5 ng/mL of murine recombinant IL-3 (BD Pharmingen). For IL-3 withdrawal experiments, cells were washed three times in medium without IL-3 and serum. After the final wash, cells were resuspended in complete medium without IL-3. Medium for cells cultured in the absence of IL-3 was replaced with fresh complete medium without IL-3 every 10 days. […] Cell size and number was assessed by using a Coulter Z2 particle analyzer. For readdition experiments, cells grown in the absence of IL-3 at the indicated time points were pelleted by centrifugation and resuspended in complete media containing 3.5 ng/mL IL-3. The FL5.12 cell line was maintained in complete media supplemented with 0.35 ng/mL IL-3. For measurement of mitochondrial membrane potential, cells were incubated for 30 minutes with 50 nM of tetramethyl rhodamine ethyl ester (TMRE; Molecular Probes) in the presence or absence of 50 μM CCCP (Sigma). Viability was performed by incubating cells with annexin V conjugated fluorescein isothiocyanate (BD Pharmingen) in buffer containing 1 μg/mL propidium iodide (Molecular Probes) followed by FACS analysis. DNA fragmentation assay was performed as previously described.

In data set [3] the test system is LC3. Description: LC3 immunofluorescence staining of autophagosomes. It is filed as cell-based, mice. The conditions noted are these: cells without IL-3 for 6 weeks, 18 hours of 5 mM 3-MA or 10 μM CQ. As for the experimental part: Antibodies (all 1:1000 dilution) used were: GLUT1 (Research Diagnostic Inc.), calreticulin (StressGen), STAT3 (Cell Signalling), actin (Sigma), LC3 (gift from T. Yoshimori), ATG5 (gift from N. Mizushima), Bax (Santa Cruz) and Bak (Upstate Technologies). For immunofluorescence staining, cells were fixed in 4% paraformaldehyde and permeabilized with 0.1% Triton X-100, washed 3 times (PBS containing 0.01% Triton X-100 and 10% FBS), followed by incubation with […]. […] Images were captured using a Zeiss 510 confocal microscope. For surface analysis, cells were fixed in 4% paraformaldehyde, stained with 1:100 biotin-anti-IL-3 alpha chain receptor (BD Pharmingen) and a 1:100 dilution of streptavidin conjugated fluorescein isothiocyanate (BD Pharmingen) followed by FACS analysis.

The test system of data set [4] is Bax^−/−Bak^−/− cells. As to the kind of experiment: ATP levels in growth factor-deprived cells. It is filed as cell-based, mice. The conditions noted are these: IL-3 deprived cells; for ATP levels: 8 hours after addition of drug. The procedure: The conversion of 5-^3H-glucose to ^3H2O was used to measure the glycolytic rate. The level of ATP was measured as described previously.

For data set [5], the system named is Myc/p53ER^TAM lymphoma cells. Description: In vitro growth of Myc/p53ER^TAM lymphoma cells (cell number). It is filed as cell-based, mice. Conditions: Mus musculus, 96 h; cell number measured on day 4, medium changed daily, single agent; read-out: IC50, impairment of lymphoma cell growth. The source says:
For all in vitro experiments media+supplements and drugs treatments were changed daily.

Data set [6] can be described thus: Observed toxicity in treated tumor-bearing mice. As for the experimental part: (§1) For tamoxifen (TAM) treatment, the hormone powder (Sigma, St. Louis) was dispersed, via sonication, in peanut oil (Sigma) at a concentration of 10 mg/mL. The administration of TAM was done via daily IP injections at the dose of 1 mg per mouse.
(§2) 4-hydroxytamoxifen (hTAM) (Sigma) was dissolved in ethanol. Cyclophosphamide (Sigma) was dissolved in PBS. Tumors were measured on a daily basis using calipers and tumor volume was calculated using the formula: (mm^3)=AxBx[A+B]/2

Data set [7] relates to Myc/p53ER^TAM lymphomas. As to the kind of experiment: Myc/p53ER^TAM lymphoma tumor growth, regression and recurrence in syngeneic mice. It is filed as in vivo. The procedure:
All experiments were performed in accordance with approved animal safety protocols. All experiments were carried out using 8-10 week old C57BL/6X129F1 mice obtained from The Jackson Laboratory (Bar Harbor, Me.). Bone marrow cell harvest and production of bone marrow-derived neoplasms followed the protocol previously described. After primary tumor formation, tumor cells were harvested in ice cold PBS by passage through a […] nylon mesh (BD Bioscience, Bedford, Md.) and expanded in vivo by subcutaneous injection into the flanks of syngeneic mice. For tissue analysis, all animals were sacrificed individually by CO2 asphyxiation and tissue was harvested immediately. Tumors were harvested in ice cold PBS. For each tumor, sections of visually viable tumor tissue were fixed in 10% formalin for preparation of paraffin-embedded sections, glutaraldehyde for electron microscopy (see below). Tumor cell lysates were achieved through manual agitation of remaining tumor tissue in RIPA buffer.
as §1, §2

Data set [8] has as its system Myc/p53ER^TAM lymphomas. As to the kind of experiment: Electron microscopy and quantification of autophagosomes in tumors. The data set is classed as in vivo, mice. The conditions noted are these: 24 hours after initiation of TAM/PBS compared to 48 hours of PBS alone; p<0.0005. The source says: Cells were postfixed with 2% osmium tetroxide followed by an increasing gradient dehydration step using ethanol and propylene oxide. […] Data is presented as mean ±SD.

Data set [9] deals with cleaved caspase 3. As to the kind of experiment: Western blot of cleaved caspase 3 in tumor lysates. It is filed as in vivo, mice. Conditions: lysates obtained at 48 hours; data not shown. The source says: Cultured cells were lysed in RIPA buffer. Tumor lysates were obtained by manual agitation of tumor tissue and lysis in RIPA. Lysates were standardized for protein content and resolved by SDS-PAGE on 14% NuPAGE gels (Invitrogen, St Louis, Mo.). Nitrocellulose blots were probed with antibodies against cleaved caspase 3 (rabbit monoclonal antibody; […]) (Cell Signaling, Beverly, Mass.); anti-actin (mouse monoclonal antibody; 1:10,000) (Sigma, St. Louis, Mo.); anti-ATG5 (rabbit polyclonal antibody; 1:2000) (gift from N. Mizushima).
(In general: In western blotting, separated proteins are transferred to a membrane and probed.)

In the case of 4-hydroxytamoxifen [hTAM], in data set [1], the “punctate GFP-LC3 fluorescence” value was “increased number of punctate LC3 associated vesicles”.
On to `Cn1cnc(N)c2ncnc1-2` [3-MA, 3-methyladenine], for which, in data set [2], the “effect on survival of cells grown in the presence of IL-3” value is on record as “no significant effect” and the “death of the cells in the cultures” value came to 72%. In data set [3], the “number of autophagosomes (LC3 redistribution from punctate to diffuse staining)” value is on record as “reduction in the number of autophagosomes”. For the same compound, in data set [4], the ATP levels result was “dramatic decline in ATP levels”.
`CCN(CC)CCCC(C)Nc1ccnc2cc(Cl)ccc12` (centres unmarked) [CQ, chloroquine]: the IC50 in [5] was found to be 3000 nM. Also, in [2], the “effect on survival of cells grown in the presence of IL-3” value is recorded as “no significant effect” and the “death of the cells in the cultures” value stood at 82%. The “number of autophagosomes (LC3 redistribution from punctate to diffuse staining)” value in data set [3] is on record as “reduction in the number of autophagosomes”. Further, the “additional toxicity in treated animals” value in data set [6] (CQ cotreatment with TAM or with cyclophosphamide) is “did not result in additional toxicity”. Besides, the observed toxicity result in data set [6] (daily IP 50 mg/kg/day or 60 mg/kg/day) was “no observed toxicity”. Moreover, the “tolerability of systemic administration” value in data set [6] (for up to 20 days) was “well tolerated”. In data set [1], the “punctate GFP-LC3 fluorescence” value is on record as “Some punctate GFP-LC3 fluorescence”. For the same compound, in [4], the ATP levels result is reported as “dramatic decline in ATP levels”. Besides, the tumor regression entry in data set [7] (CQ 50 or 60 mg/kg/day IP daily, single agent) is recorded as “not observed”. In data set [7] (cyclophosphamide 50 mg/kg IP once followed by daily CQ 60 mg/kg/day IP for 13 days), the “average time to tumor recurrence” value was found to be 12.5 ± 6.6 days.
As for `CC/C(=C(\c1ccccc1)c1ccc(OCCN(C)C)cc1)c1ccccc1` [TAM/PBS, tamoxifen], in data set [8], the “increase of percentage of tumor cells with autophagosomes” value is recorded as 30 fold. Besides, the “cleaved caspase 3 in tumor lysates” value in data set [9] was “absent”. In addition, in data set [7] (TAM/CQ and TAM/HCQ pooled in one figure, p<0.005), the “mice with complete clinical regression of their tumor” value was determined as 8%.
In the case of `O=P1(N(CCCl)CCCl)NCCCO1` (centres unmarked) [cyclophosphamide], the “average time to tumor recurrence” value in data set [7] (cyclophosphamide 50 mg/kg IP once followed by daily PBS) stood at 5.25 ± 1.9 days. Also, the tumor regression entry in data set [7] (single dose cyclophosphamide 50 mg/kg IP with or without CQ) is given as “complete tumor regression in all treated mice”.
As to `COC(=O)C(C)=O` [methyl pyruvate], the “effect on death observed in response to 3-MA and CQ” value in [2] (10 mM methyl pyruvate added at the time of 3-MA or CQ treatment, IL-3 deprived 6 weeks) is listed as “suppressed the death”. In addition, the “effect on ATP decline caused by 3-MA or CQ” value in [4] (10 mM MP, 8 hours) was “could be suppressed”.

A word on the IC50: it is the concentration at which inhibition is half-maximal.
